This note sets out measurements from publication PMC9346089 (The FEBS journal, 2022).

Structures are written as SMILES.

Conditions in all cases: 5 uM vitamin K epoxide in medium; HEK293 VKORC1/VKORL1 knockout
One experiment deals with S3. Kind of experiment: cell-based gamma-carboxylation reporter. Also noted: species or system Synechococcus sp. JA-2-3B'a(2-13).
Another experiment relates to S3-TM5/Trx. The experiment is described as follows: cell-based gamma-carboxylation reporter. Also noted: species or system Synechococcus sp. JA-2-3B'a(2-13).
For a further experiment, the system named is M2.
The test system of another experiment is M1.

`CC(=O)CC(c1ccccc1)c1c(O)c2ccccc2oc1=O` (stereo not shown) [warfarin]: the IC50 in the experiment with S3 came out at 190 nM; in the experiment with S3-TM5/Trx, 1110 nM; in the experiment with M2 it was 1870 nM; in the experiment on M1, 400 nM.

What is called IC50 is the concentration at which inhibition is half-maximal. Low values mean higher potency, high ones lower potency.
